Drawing on patent publication US6514968B1, “Aminoalkoxy carbazoles for the treatment of cns diseases” (Pharmacia & Upjohn Company, priority 1999, dated 2003), this text covers Ki and melting point for 22 compounds.

A word on the pKi: it is the Ki on a negative log10 scale, so that one unit is a factor of ten. Broadly, the melting point is the temperature, or range, at which the solid turns liquid.

The target of data set [1] is T1, cloned human 5-HT6 receptor (Homo sapiens, UniProt P50406).
T1 construct: host or cells: HeLa cells (G-418 selection), membrane preparation
Briefly: 5-HT6 Receptor Binding Assay. The note with it: [3H]-lysergic acid diethylamide (LSD) radioligand, membranes of Hela cells containing the cloned human 5-HT6 receptor, SPA beads; estimated IC50 converted to Ki by Cheng-Prusoff. On the procedure:
5-HT6 Receptor Binding Assay
Growth of Cells and Membrane Preparation
Hela cells containing the cloned human 5-HT6 receptor were acquired from Dr. David R. Sibley's laboratory in National Institute of Health (see Sibley, D. R., J. Neurochemistry, 66, 47-56, 1996). Cells were grown in high glucose Dulbecco's modified Eagle's medium, supplemented with L-glutamine, 0.5% sodium pyruvate, 0.3% penicillin-streptomycin, 0.025% G-418 and 5% Gibco fetal bovine serum and then were harvested, when confluent, in cold phosphate-buffered saline.
Harvested intact cells were washed once in cold phosphate-buffered saline. The cells were pelleted and resuspended in 100 ml of cold 50 mM Tris, 5 mM EDTA and 5 mM EGTA, pH 7.4. Homogenization was with a Vir Tishear generator, 4 cycles for 30 seconds each at setting 50. The homogenized cells were centrifuged at 700 RPM (1000×g) for 10 minutes and the supernatant was removed. The pellet was resuspended in 100 ml of the above buffer and rehomogenized for 2 cycles. The rehomogenized cells were then centrifuged at 700 RPM (1000×g) for 10 minutes and the supernatant was removed. The combined supernatant (200ml) was centrifuged at 23,000 RPM (80,000×g) for 1 hour in a Beckman Rotor (42.1 Ti). The membrane pellet was resupended in 50-8-ml of assay buffer containing HEPES 20 mM, MgCl2 10 mM, NaCl 150 mM, EDTA 1 mM, pH 7.4 and stored frozen in aliqouts at −70° C.
The radioligand binding assay used [^3H]-lysergic acid diethylamide (LSD). The assay was carried out in Wallac 96-well sample plates by the addition of 11 μl of the test sample at the appropriate dilution (the assay employed 11 serial concentrations of samples run in duplicate), 11 μl of radioligand, and 178 μl of a washed mixture of WGA-coated SPA beads and membranes in binding buffer. The plates were shaken for about 5 minutes and then incubated at room temperature for 1 hour. The plates were then loaded into counting cassettes and counted in a Wallac MicroBeta Trilux scintillation counter.
Binding Constant (Ki) Determination
Eleven serial dilutions of test compounds were distributed to assay plates using the PE/Cetus Pro/Pette pipetter. These dilutions were, followed by radioligand and the bead-membrane mixture prepared as described above. The specifically bound cpm obtained were fit to a one-site binding model using GraphPad Prism ver. 2.0. Estimated IC50 values were converted to Ki values using the Cheng-Prusoff equation (Cheng, Y. C. et al., Biochem. Pharmacol., 22, 3099-108, 1973).

SMILES strings stand for the structures. pKi: −log10 of the molar value. Where a name gives a salt, the structure may show the parent alone. Some results are limits rather than exact numbers.

T1 sequence (P50406 whole entry): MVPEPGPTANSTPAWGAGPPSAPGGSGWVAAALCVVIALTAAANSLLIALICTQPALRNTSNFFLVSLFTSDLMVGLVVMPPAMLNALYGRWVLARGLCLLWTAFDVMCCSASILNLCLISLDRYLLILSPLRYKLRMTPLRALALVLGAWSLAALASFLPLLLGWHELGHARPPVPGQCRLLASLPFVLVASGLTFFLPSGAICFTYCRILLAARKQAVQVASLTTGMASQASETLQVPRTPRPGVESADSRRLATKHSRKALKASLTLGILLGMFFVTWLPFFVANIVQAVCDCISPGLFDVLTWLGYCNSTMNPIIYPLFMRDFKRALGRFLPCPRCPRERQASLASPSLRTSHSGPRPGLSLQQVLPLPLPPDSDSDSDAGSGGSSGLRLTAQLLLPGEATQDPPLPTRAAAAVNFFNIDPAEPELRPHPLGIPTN

On to `c1ccc(Cn2c3ccccc3c3c(OCCN4CCCCC4)cccc32)cc1` [Example 39, 9-Benzyl-4-[2-(1-piperidinyl)ethoxy]-9H-carbazole], for which the melting point was in the range of 113.5 to 114.5 °C. Besides, in data set [1], the pKi is 7.92.

For the compound `O=C(O)/C=C\C(=O)O.OCCNCCOc1cccc2c1c1ccccc1n2Cc1ccccc1` [Example 49, 2-({2-[(9-benzyl-9H-carbazol-4-yl)oxy]ethyl}amino)-1-ethanol], the melting point is 160 °C. The pKi in data set [1] is 8.35.

Compound `NCCOc1cccc2c1c1ccccc1n2Cc1csc2ccc(Cl)cc12` (as salt: methane sulfonate) [Example 50, 2-({9-[(5-Chloro-1-benzothiophen-3-yl)methyl]-9H-carbazol-4-yl}oxy)ethylamine] gave a melting point of over 256 °C.

In turn, `Cc1ccc2c(c1)c1c(OCCN)cccc1n2Cc1ccccc1.O=C(O)/C=C\C(=O)O` [Example 46, 2-[(9-Benzyl-6-methyl-9H-carbazol-4-yl)oxy]ethylamine] showed a melting point of 187.5 to 188 °C. Further, in data set [1], the pKi was 8.21.

Take `CCN(CC)CCOc1cccc2c1c1cccc(F)c1n2Cc1ccc(F)cc1` [Example 42, N,N-Diethyl-N-(2-{[8-fluoro-9-(4-fluorobenzyl)-9H-carbazol-4-yl]oxy}ethyl)amine]: the melting point lay in the range of 59 to 60 °C. Moreover, in data set [1], the pKi is 7.70.

As to `NCCOc1cccc2c1c1cccc(F)c1n2Cc1ccccc1` [Example 41, 2-[(9-Benzyl-8-fluoro-9H-carbazol-4-yl)oxy]ethylamine], the melting point fell in the range of 122.25 to 123 °C. For the same compound, in data set [1], the pKi is 8.62.

For the compound `CCN(CC)CCOc1cccc2c1c1cccc(F)c1n2Cc1ccccc1` [Example 7, N-{2-[(9-Benzyl-8-fluoro-9H-carbazol-4-yl)oxy]ethyl}-N,N-diethylamine], the melting point fell in the range of 60 to 60.5 °C. Besides, the pKi in data set [1] was 8.59.

Compound `O=CNCCOc1cccc2c1c1ccccc1n2Cc1ccccc1` [Example 33, N-{2-[(9-benzyl-9H-carbazol-4-yl)oxy]ethyl}formamide] had a melting point of 161 to 162 °C. The pKi in data set [1] is 6.68.

In the case of `Cc1nc(Cn2c3ccccc3c3c(OCCN)cccc32)cs1` (as salt: methane sulfonate) [Example 51, 2-({9-[(2-Methyl-1,3-thiazol-4-yl)methyl]-9H-carbazol-4-yl}oxy)ethylamine], the melting point was 228.5 to 229 °C.

With `CCN(CC)CCOc1cccc2c1c1cc(F)ccc1n2Cc1ccccc1` [Example 44, N-{2-[(9-Benzyl-6-fluoro-9H-carbazol-4-yl)oxy]ethyl}-N,N-diethylamine], the melting point is 68 to 69 °C. The negative-log Ki (pKi) in data set [1] is 6.74.

In the case of `CNCCOc1cccc2c1c1cc(C)ccc1n2Cc1ccccc1` [Example 47, N-{2-[(9-Benzyl-6-methyl-9H-carbazol-4-yl)oxy]ethyl}-N-methylamine], the melting point lay in the range of 96 to 96.75 °C. In addition, in data set [1], the pKi was 8.66.

Take `COCCNCCOc1cccc2c1c1ccccc1n2Cc1ccccc1.O=C(O)/C=C\C(=O)O` [Example 36, N-{2-[(9-Benzyl-9H-carbazol-4-yl)oxy]ethyl}-N-(2-methoxyethyl)amine]: the melting point was in the range of 175 to 175.5 °C. Also, the pKi in data set [1] was 7.80.

For the compound `CCN(CC)CCOc1cccc2c1c1cccc(Cl)c1n2Cc1ccc(F)cc1` [Example 3, N-(2-{[8-Chloro-9-(4-fluorobenzyl)-9H-carbazol-4-yl]oxy}ethyl)-N,N-diethylamine], the melting point fell in the range of 104.5 to 105.5 °C. Moreover, the pKi in data set [1] was 7.66.

Consider `CCN(CC)CCOc1cccc2c1c1ccccc1n2Cc1ccccc1` [Example 1, N-{2-[(9-Benzyl-9H-carbazol-4-yl)oxy]ethyl}-N,N-diethylamine], for which the melting point lay within 79 to 80.5 °C. In data set [1], the pKi was 7.62.

`CCN(CC)CCOc1cccc2c1c1cccc(Cl)c1n2Cc1ccccc1` [Example 2, N-{2-[(9-Benzyl-8-chloro-9H-carbazol-4-yl)oxy]ethyl}-N,N-diethylamine] displayed a melting point of 73.5 to 75 °C. The pKi in data set [1] is 8.22.

With `Cc1nc(Cn2c3ccccc3c3c(OCCN)cccc32)cs1` [Example 51, 2-({9-[(2-Methyl-1,3-thiazol-4-yl)methyl]-9H-carbazol-4-yl}oxy)ethylamine], the pKi in data set [1] is 6.95.

Take `CCN(CC)CCOc1cccc2c1c1cc(Cl)ccc1n2Cc1ccccc1` [Example 43, N-{2-[(9-Benzyl-6-chloro-9H-carbazol-4-yl)oxy]ethyl}-N,N-diethylamine]: the melting point is 96 to 97.5 °C. In data set [1], the negative-log Ki (pKi) was 6.74.

`C=CCNCCOc1cccc2c1c1ccccc1n2Cc1ccccc1` [Example 11, N-{2-[(9-benzyl-9H-carbazol-4-yl)oxy]ethyl}-2-propen-1-amine]: the pKi in data set [1] is 7.64.

For the compound `CCN(CC)CCOc1cccc2c1c1cccc(C)c1n2Cc1ccc(F)cc1` [Example 5, N,N-Diethyl-N-(2-{[9-(4-fluorobenzyl)-8-methyl-9H-carbazol-4-yl]oxy}ethyl)amine], the pKi in data set [1] was 7.42.

For the compound `CNCCOc1cccc2c1c1ccccc1n2Cc1ccccc1.O=C(O)/C=C\C(=O)O` [Example 34, N-{2-[(9-Benzyl-9H-carbazol-4-yl)oxy]ethyl}-N-methylamine], the melting point fell in the range of 182.5 to 184.5 °C. Besides, the pKi in data set [1] is 8.24.

On to `NCCOc1c(Cl)ccc2c1c1ccccc1n2Cc1ccccc1` [Example 52, 2-[(9-Benzyl-3-chloro-9H-carbazol-4-yl)oxy]ethylamine], for which the pKi in data set [1] was 7.62.

Turning to `CN1CCN(CCOc2cccc3c2c2ccccc2n3Cc2ccccc2)CC1` [Example 30, 9-benzyl-4-[2-(4-methyl-1-piperazinyl)ethoxy]-9H-carbazole], the pKi in data set [1] was 7.92.
